# Source: PubChem BioAssay AID1963964 (Molecular Pharmacology Branch, DTP, NCI, 2024)
# Test system: 997726-040-R-J2-PDC tumor spheroids, viability
# Test: Anticancer human tumor 997726-040-R-J2-PDC patient-derived squamous cell lung carcinoma cell line growth inhibition [PI3K]
# Conditions: spheroids with HUVEC and MSC; for viability, T/C: stronger effect = lower value
# Outline: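 Targeted small molecules plus PI3K inhibitors, half-log dose series from Cmax (default top 10 microM), were applied to heterotypic spheroids of cancer cells with HUVEC and MSCs. Viability indicated growth inhibition.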
# [1] = curve of first compound, second compound 0.00316 µM
# [2] = curve of first compound, second compound 0.01 µM
# [3] = curve of first compound, second compound 0.0316 µM
# [4] = curve of first compound, second compound 0.1 µM
# [5] = curve of first compound, second compound 0.316 µM
# [6] = curve of first compound, second compound 1 µM
# [7] = second compound 0.00316 µM, first compound 0.00316 µM
# [8] = second compound 0.00316 µM, first compound 0.01 µM
# [9] = second compound 0.00316 µM, first compound 0.0316 µM
# [10] = second compound 0.00316 µM, first compound 0.1 µM
# [11] = second compound 0.01 µM, first compound 0.00316 µM
# [12] = second compound 0.01 µM, first compound 0.01 µM
# [13] = second compound 0.01 µM, first compound 0.0316 µM
# [14] = second compound 0.01 µM, first compound 0.1 µM
# [15] = second compound 0.0316 µM, first compound 0.000316 µM
# [16] = second compound 0.0316 µM, first compound 0.001 µM
# [17] = second compound 0.0316 µM, first compound 0.00316 µM
# [18] = second compound 0.0316 µM, first compound 0.01 µM
# [19] = second compound 0.0316 µM, first compound 0.0316 µM
# [20] = second compound 0.0316 µM, first compound 0.1 µM
# [21] = second compound 0.1 µM, first compound 0.000316 µM
# [22] = second compound 0.1 µM, first compound 0.001 µM
# [23] = second compound 0.1 µM, first compound 0.00316 µM
# [24] = second compound 0.1 µM, first compound 0.01 µM
# [25] = second compound 0.1 µM, first compound 0.0316 µM
# [26] = second compound 0.1 µM, first compound 0.1 µM
# [27] = second compound 0.316 µM, first compound 0.000316 µM
# [28] = second compound 0.316 µM, first compound 0.001 µM
# [29] = second compound 0.316 µM, first compound 0.00316 µM
# [30] = second compound 0.316 µM, first compound 0.01 µM
# [31] = second compound 0.316 µM, first compound 0.0316 µM
# [32] = second compound 0.316 µM, first compound 0.1 µM
# [33] = second compound 1 µM, first compound 0.000316 µM
# [34] = second compound 1 µM, first compound 0.001 µM
# [35] = second compound 1 µM, first compound 0.00316 µM
# [36] = second compound 1 µM, first compound 0.01 µM
# [37] = second compound 1 µM, first compound 0.0316 µM
# [38] = second compound 1 µM, first compound 0.1 µM
# 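Note: spheroids exposed to compounds for seven days before readout.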
structure (smiles),measurement,setting,value
CC1(C)CCC(CN2CCN(c3ccc(C(=O)NS(=O)(=O)c4ccc(NCC5CCOCC5)c([N+](=O)[O-])c4)c(Oc4cnc5[nH]ccc5c4)c3)CC2)=C(c2ccc(Cl)cc2)C1,"viability, T/C",compound 0.0316 µM,98.4% [middle of 4 runs]
same,"viability, T/C",compound 0.1 µM,95.7% [middle of 4 runs]
same,"viability, T/C",compound 1 µM,102% [middle of 4 runs]
same,"viability, T/C",compound 3.16 µM,98.8% [middle of 4 runs]
same,"viability, T/C",compound 10 µM,42.4% [middle of 4 runs]
same,IC50,curve of compound,8.5 µM [middle of 4 runs]
CC(=O)c1c(C)c2cnc(Nc3ccc(N4CCNCC4)cn3)nc2n(C2CCCC2)c1=O + COc1c(OCCCN2CCOCC2)ccc2c3n(c(=NC(=O)c4cnc(N)nc4)nc12)CCN3,IC50,[1],> 100 nM
same,IC50,[2],15.6 nM
same,IC50,[3],< 0.316 nM
same,IC50,[4],< 0.316 nM
same,IC50,[5],< 0.316 nM
same,IC50,[6],< 0.316 nM
same,"viability, T/C","second compound 0.00316 µM, first compound 0.000316 µM",73%
same,"viability, T/C","second compound 0.00316 µM, first compound 0.001 µM",77.6%
same,"viability, T/C",[7],69.8%
same,"viability, T/C",[8],75%
same,"viability, T/C",[9],60.1%
same,"viability, T/C",[10],52.4%
same,"viability, T/C","second compound 0.01 µM, first compound 0.000316 µM",62.1%
same,"viability, T/C","second compound 0.01 µM, first compound 0.001 µM",60.9%
same,"viability, T/C",[11],53.8%
same,"viability, T/C",[12],55.8%
same,"viability, T/C",[13],44.4%
same,"viability, T/C",[14],39.2%
same,"viability, T/C",[15],32.2%
same,"viability, T/C",[16],42.1%
same,"viability, T/C",[17],35.3%
same,"viability, T/C",[18],34.1%
same,"viability, T/C",[19],28.1%
same,"viability, T/C",[20],25.7%
same,"viability, T/C",[21],20.6%
same,"viability, T/C",[22],23.3%
same,"viability, T/C",[23],23.9%
same,"viability, T/C",[24],21%
same,"viability, T/C",[25],18.7%
same,"viability, T/C",[26],17.1%
same,"viability, T/C",[27],5.23%
same,"viability, T/C",[28],5.65%
same,"viability, T/C",[29],6.03%
same,"viability, T/C",[30],5.28%
same,"viability, T/C",[31],5.14%
same,"viability, T/C",[32],3.76%
same,"viability, T/C",[33],1.5%
same,"viability, T/C",[34],1.26%
same,"viability, T/C",[35],1.01%
same,"viability, T/C",[36],1.2%
same,"viability, T/C",[37],1.19%
same,"viability, T/C",[38],1.06%
CCN1CCN(Cc2ccc(Nc3ncc(F)c(-c4cc(F)c5nc(C)n(C(C)C)c5c4)n3)nc2)CC1 + COc1c(OCCCN2CCOCC2)ccc2c3n(c(=NC(=O)c4cnc(N)nc4)nc12)CCN3,IC50,[1],> 1000 nM
same,IC50,[2],10.4 nM
same,IC50,[3],< 3.16 nM
same,IC50,[4],< 3.16 nM
same,IC50,[5],< 3.16 nM
same,IC50,[6],< 3.16 nM
same,"viability, T/C",[7],70%
same,"viability, T/C",[8],68.4%
same,"viability, T/C",[9],62.2%
same,"viability, T/C",[10],54.2%
same,"viability, T/C","second compound 0.00316 µM, first compound 0.316 µM",55.1%
same,"viability, T/C","second compound 0.00316 µM, first compound 1 µM",65.3%
same,"viability, T/C",[11],61%
same,"viability, T/C",[12],50.4%
same,"viability, T/C",[13],49.1%
same,"viability, T/C",[14],41.3%
same,"viability, T/C","second compound 0.01 µM, first compound 0.316 µM",41.5%
same,"viability, T/C","second compound 0.01 µM, first compound 1 µM",60.8%
same,"viability, T/C",[17],31.4%
same,"viability, T/C",[18],34.8%
same,"viability, T/C",[19],29.5%
same,"viability, T/C",[20],28.1%
same,"viability, T/C","second compound 0.0316 µM, first compound 0.316 µM",31%
same,"viability, T/C","second compound 0.0316 µM, first compound 1 µM",33.7%
same,"viability, T/C",[23],22%
same,"viability, T/C",[24],20.4%
same,"viability, T/C",[25],17.7%
same,"viability, T/C",[26],16.6%
same,"viability, T/C","second compound 0.1 µM, first compound 0.316 µM",16.9%
same,"viability, T/C","second compound 0.1 µM, first compound 1 µM",19.3%
same,"viability, T/C",[29],5.44%
same,"viability, T/C",[30],4.49%
same,"viability, T/C",[31],4.5%
same,"viability, T/C",[32],6.65%
same,"viability, T/C","second compound 0.316 µM, first compound 0.316 µM",6.95%
same,"viability, T/C","second compound 0.316 µM, first compound 1 µM",7.72%
same,"viability, T/C",[35],1.02%
same,"viability, T/C",[36],1.63%
same,"viability, T/C",[37],1.24%
same,"viability, T/C",[38],1.32%
same,"viability, T/C","second compound 1 µM, first compound 0.316 µM",2.23%
same,"viability, T/C","second compound 1 µM, first compound 1 µM",3.91%
Cn1ncnc1[C@H]1c2n[nH]c(=O)c3cc(F)cc(c23)N[C@@H]1c1ccc(F)cc1 + CC(Nc1ncnc2nc[nH]c12)c1cc2cccc(Cl)c2c(=O)n1-c1ccccc1,IC50,[3],> 100 nM
same,IC50,[4],> 100 nM
same,IC50,[5],> 100 nM
same,IC50,[6],> 100 nM
same,IC50,"curve of first compound, second compound 3.16 µM",> 100 nM
same,IC50,"curve of first compound, second compound 10 µM",80.4 nM
same,"viability, T/C",[15],101%
same,"viability, T/C",[16],99.9%
same,"viability, T/C",[17],102%
same,"viability, T/C",[18],112%
same,"viability, T/C",[19],99.7%
same,"viability, T/C",[20],96.8%
same,"viability, T/C",[21],96.5%
same,"viability, T/C",[22],99.7%
same,"viability, T/C",[23],94.4%
same,"viability, T/C",[24],102%
same,"viability, T/C",[25],98.4%
same,"viability, T/C",[26],97.1%
same,"viability, T/C",[27],93.5%
same,"viability, T/C",[28],99.4%
same,"viability, T/C",[29],98%
same,"viability, T/C",[30],101%
same,"viability, T/C",[31],97.6%
same,"viability, T/C",[32],99.3%
same,"viability, T/C",[33],100%
same,"viability, T/C",[34],95.3%
same,"viability, T/C",[35],90.4%
same,"viability, T/C",[36],86.2%
same,"viability, T/C",[37],86.2%
same,"viability, T/C",[38],89.1%
same,"viability, T/C","second compound 3.16 µM, first compound 0.000316 µM",70.3%
same,"viability, T/C","second compound 3.16 µM, first compound 0.001 µM",77.9%
same,"viability, T/C","second compound 3.16 µM, first compound 0.00316 µM",69.7%
same,"viability, T/C","second compound 3.16 µM, first compound 0.01 µM",65.5%
same,"viability, T/C","second compound 3.16 µM, first compound 0.0316 µM",89.9%
same,"viability, T/C","second compound 3.16 µM, first compound 0.1 µM",67.2%
same,"viability, T/C","second compound 10 µM, first compound 0.000316 µM",54.8%
same,"viability, T/C","second compound 10 µM, first compound 0.001 µM",61.6%
same,"viability, T/C","second compound 10 µM, first compound 0.00316 µM",55.3%
same,"viability, T/C","second compound 10 µM, first compound 0.01 µM",54%
same,"viability, T/C","second compound 10 µM, first compound 0.0316 µM",55%
same,"viability, T/C","second compound 10 µM, first compound 0.1 µM",48.9%
